From patent US20070232563A1, “Method for Enhancing Biological Activity and/or Expanding Suitable Region for Biological Activity of Living Body Contacting with Aqueous Environment” (Kabushiki Kaisha Hayashibara Seibutsu Kagaku Kenky, priority 2004, published 2007)

Legend:
Type in all cases: in vivo
unpolished rice = experiment: Germination of unpolished rice in aqueous mineral solution
Experimental: Suitable mineral range of aqueous mineral solutions containing saccharides was examined by using unpolished rice as an agricultural product. In detail, a commercialized purified salt as a mineral was dissolved in tap water to give a final concentration of 0.5, 1.0, 1.5, or 2.0 as described in the following Table 6. α,α-Trehalose or α-maltosyl α,α-trehalose was dissolved in the resulting solutions to give a final concentration of 1 w/v %, on a dry solid basis. Absorbent cotton was allowed to absorb the resulting solution in an appropriate amount and placed in a plastic laboratory dish with a cover. Commercialized unpolished rice grains were placed on the cotton in the dish by 20 grains per group and kept at ambient temperature (25° C.) under a light-shaded condition by covering with a black cloth. As controls, an aqueous mineral solution without saccharides, and water without saccharides and minerals were prepared. […] Effective concentration of α,α-trehalose or α-maltosyl α,α-trehalose on expanding suitable region for biological activity of unpolished rice grains were determined by examining the number of germinated unpolished rice grains and germination time as an index in accordance with the method in Experiment 6 in the aqueous mineral solution with mineral concentration of 1.5 w/v %, where α,α-trehalose or α-maltosyl α,α-trehalose was effective in Experiment 6, containing α,α-trehalose or α-maltosyl α,α-trehalose in a concentration of 0.01, 0.1, 1, 2, 3, 4 or 6 w/v %, on a dry solid basis. As a control, water without saccharides or minerals was used.

[1] = tested on: gold fish (Japanese gold fish, Carassius auratus) with columnaris disease; experiment: Treatment for a disease of gold fish (columnaris disease); details: bred one week, each ingredient 1 (w/v)%
Experimental: One per group of gold fish (Japanese gold fish, Carassius auratus) with columnaris disease was bred in an aquarium filled with 2 L of aqueous solution containing 1 w/v % mineral and 1 w/v % α,α-trehalose or α-maltosyl α,α-trehalose at ambient temperature with normal feed for one week. Waters containing either of mineral, α,α-trehalose or α-maltosyl α,α-trehalose as references and water as a control were prepared to breed similarly as above. The fishes were macroscopically observed their activity and treatment effect.

[2] = tested on: colbicula (Corbicula leana); experiment: Biological activity of corbicula (aqueduct extension score) in aqueous mineral solutions
Description: Influence of various saccharides was judged by observing the degree of extending aqueduct of the shellfish; 3 points: its aqueduct is well extended; 2 points: its aqueduct is slightly extended; 1 point: its aqueduct is not extended but its shells are opened; 0 point: its shells are closed. The effect on biological activity was judged by the total point of 18 shellfishes.
Suitable region for biological activity was examined by using colbicula (Corbicula leana) as fishes and shellfishes living in fresh water in the case of enhancing their biological activity by using aqueous mineral solutions containing various saccharides. In detail, solar salt (85% by weight of sodium chloride and 15% by weight of magnesium) as minerals was dissolved in tap water kept in a container for two days to give final concentrations described in the following Table 4. Saccharide (any one of D-glucose, maltose, sucrose, maltitol, α,α-trehalose, α-maltosyl α,α-trehalose, maltotetraose and cyclic tetrasaccharide) was dissolved in the resulting salt solutions to give a final concentration of 1 w/v %, on a dry solid basis. The resulting each solution was placed in a plastic bat. Eighteen pre-selected active shellfishes in one group were placed in the bat. The bat was shaded with a black cloth and left at ambient temperature (18° C.) for 16 hours. As a control, an aqueous solar salt solution without saccharides was prepared. Biological activity of the shellfish was judged by measuring extend their aqueducts macroscopically in the same manner as in Experiment 1.
Effective concentration range of α,α-trehalose or α-maltosyl α,α-trehalose on enhancing biological activity and/or influencing on suitable region for biological activity of colbicula (Corbicula leana) was determined according to the method of Experiment 4 by examining biological activity of the shellfish in the aqueous mineral solution with a mineral concentration of 1.5 w/v %, where α,α-trehalose or α-maltosyl α,α-trehalose was effective in Experiment 4, containing α,α-trehalose or α-maltosyl α,α-trehalose at a concentration of 0.01, 0.1, 1, 2, 3 or 4 w/v %, on a dry solid basis. As a control, a solution containing 1.5 w/v % of mineral without such saccharides was prepared and treated in the same manner.

OC[C@H]1O[C@H](O[C@H]2O[C@H](CO)[C@@H](O)[C@H](O)[C@H]2O)[C@H](O)[C@@H](O)[C@@H]1O [α,α-Trehalose, α,α-trehalose]
5: Germinated grains (Number) (unpolished rice; Experiment 7, mineral 1.5 w/v %, saccharide 0.1 w/v %, 96 hours)
54: Judgment score of biological activity ([2]; mineral concentration 0, saccharide 1 w/v %, total of 18 shellfishes, 16 h)
48: Judgment score of biological activity ([2]; Experiment 5, mineral 1.5 w/v %, saccharide 2 w/v %)
20: Germinated grains (Number) (unpolished rice; mineral 0.5 w/v %, saccharide 1 w/v %, 48 hours, 20 grains) | Germinated grains (Number) (unpolished rice; mineral 0.5 w/v %, saccharide 1 w/v %, 72 hours, 20 grains) | Germinated grains (Number) (unpolished rice; mineral 0.5 w/v %, saccharide 1 w/v %, 96 hours, 20 grains) | Germinated grains (Number) (unpolished rice; mineral 0.5 w/v %, saccharide 1 w/v %, 120 hours, 20 grains) | Germinated grains (Number) (unpolished rice; mineral 1.0 w/v %, saccharide 1 w/v %, 72 hours, 20 grains) | Germinated grains (Number) (unpolished rice; mineral 1.0 w/v %, saccharide 1 w/v %, 96 hours, 20 grains) | Germinated grains (Number) (unpolished rice; mineral 1.0 w/v %, saccharide 1 w/v %, 120 hours, 20 grains) | Judgment score of biological activity ([2]; mineral concentration 2.5, saccharide 1 w/v %, total of 18 shellfishes, 16 h)
39: Judgment score of biological activity ([2]; Experiment 5, mineral 1.5 w/v %, saccharide 0.1 w/v %) | Judgment score of biological activity ([2]; Experiment 5, mineral 1.5 w/v %, saccharide 3 w/v %)
21: Judgment score of biological activity ([2]; Experiment 5, mineral 1.5 w/v %, saccharide 0.01 w/v %)
49: Judgment score of biological activity ([2]; mineral concentration 1.5, saccharide 1 w/v %, total of 18 shellfishes, 16 h)
Bad: Treatment effect ([1]; columnaris disease)
17: Germinated grains (Number) (unpolished rice; mineral 1.0 w/v %, saccharide 1 w/v %, 48 hours, 20 grains)
6: Germinated grains (Number) (unpolished rice; Experiment 7, mineral 1.5 w/v %, saccharide 0.1 w/v %, 120 hours) | Germinated grains (Number) (unpolished rice; Experiment 7, mineral 1.5 w/v %, saccharide 1 w/v %, 96 hours) | Germinated grains (Number) (unpolished rice; Experiment 7, mineral 1.5 w/v %, saccharide 1 w/v %, 120 hours) | Germinated grains (Number) (unpolished rice; Experiment 7, mineral 1.5 w/v %, saccharide 2 w/v %, 72 hours) | Germinated grains (Number) (unpolished rice; Experiment 7, mineral 1.5 w/v %, saccharide 3 w/v %, 72 hours) | Germinated grains (Number) (unpolished rice; Experiment 7, mineral 1.5 w/v %, saccharide 3 w/v %, 96 hours) | Germinated grains (Number) (unpolished rice; Experiment 7, mineral 1.5 w/v %, saccharide 3 w/v %, 120 hours) | Germinated grains (Number) (unpolished rice; Experiment 7, mineral 1.5 w/v %, saccharide 4 w/v %, 72 hours) | Germinated grains (Number) (unpolished rice; Experiment 7, mineral 1.5 w/v %, saccharide 4 w/v %, 96 hours) | Germinated grains (Number) (unpolished rice; Experiment 7, mineral 1.5 w/v %, saccharide 4 w/v %, 120 hours) | Germinated grains (Number) (unpolished rice; mineral 1.5 w/v %, saccharide 1 w/v %, 96 hours, 20 grains) | Germinated grains (Number) (unpolished rice; mineral 1.5 w/v %, saccharide 1 w/v %, 120 hours, 20 grains) | Judgment score of biological activity ([2]; mineral concentration 3.0, saccharide 1 w/v %, total of 18 shellfishes, 16 h)
53: Judgment score of biological activity ([2]; mineral concentration 0.5, saccharide 1 w/v %, total of 18 shellfishes, 16 h)
1: Germinated grains (Number) (unpolished rice; Experiment 7, mineral 1.5 w/v %, saccharide 0.01 w/v %, 72 hours) | Germinated grains (Number) (unpolished rice; Experiment 7, mineral 1.5 w/v %, saccharide 1 w/v %, 48 hours) | Germinated grains (Number) (unpolished rice; Experiment 7, mineral 1.5 w/v %, saccharide 4 w/v %, 48 hours) | Germinated grains (Number) (unpolished rice; mineral 1.5 w/v %, saccharide 1 w/v %, 48 hours, 20 grains)
52: Judgment score of biological activity ([2]; Experiment 5, mineral 1.5 w/v %, saccharide 1 w/v %) | Judgment score of biological activity ([2]; mineral concentration 1.0, saccharide 1 w/v %, total of 18 shellfishes, 16 h)
3: Germinated grains (Number) (unpolished rice; Experiment 7, mineral 1.5 w/v %, saccharide 0.01 w/v %, 120 hours) | Germinated grains (Number) (unpolished rice; Experiment 7, mineral 1.5 w/v %, saccharide 2 w/v %, 48 hours) | Germinated grains (Number) (unpolished rice; Experiment 7, mineral 1.5 w/v %, saccharide 3 w/v %, 48 hours)
2: Germinated grains (Number) (unpolished rice; Experiment 7, mineral 1.5 w/v %, saccharide 0.01 w/v %, 96 hours) | Germinated grains (Number) (unpolished rice; Experiment 7, mineral 1.5 w/v %, saccharide 0.1 w/v %, 72 hours) | Germinated grains (Number) (unpolished rice; Experiment 7, mineral 1.5 w/v %, saccharide 6 w/v %, 72 hours) | Germinated grains (Number) (unpolished rice; Experiment 7, mineral 1.5 w/v %, saccharide 6 w/v %, 96 hours) | Germinated grains (Number) (unpolished rice; Experiment 7, mineral 1.5 w/v %, saccharide 6 w/v %, 120 hours)
42: Judgment score of biological activity ([2]; mineral concentration 2.0, saccharide 1 w/v %, total of 18 shellfishes, 16 h)
4: Germinated grains (Number) (unpolished rice; Experiment 7, mineral 1.5 w/v %, saccharide 1 w/v %, 72 hours) | Germinated grains (Number) (unpolished rice; mineral 1.5 w/v %, saccharide 1 w/v %, 72 hours, 20 grains)
25: Judgment score of biological activity ([2]; Experiment 5, mineral 1.5 w/v %, saccharide 4 w/v %)
0: Germinated grains (Number) (unpolished rice; Experiment 7, mineral 1.5 w/v %, saccharide 0.01 w/v %, 48 hours) | Germinated grains (Number) (unpolished rice; Experiment 7, mineral 1.5 w/v %, saccharide 0.1 w/v %, 48 hours) | Germinated grains (Number) (unpolished rice; Experiment 7, mineral 1.5 w/v %, saccharide 6 w/v %, 48 hours) | Germinated grains (Number) (unpolished rice; mineral 0.5 w/v %, saccharide 1 w/v %, 24 hours, 20 grains) | Germinated grains (Number) (unpolished rice; mineral 1.0 w/v %, saccharide 1 w/v %, 24 hours, 20 grains) | Germinated grains (Number) (unpolished rice; mineral 1.5 w/v %, saccharide 1 w/v %, 24 hours, 20 grains) | Germinated grains (Number) (unpolished rice; mineral 2.0 w/v %, saccharide 1 w/v %, 24 hours, 20 grains) | Germinated grains (Number) (unpolished rice; mineral 2.0 w/v %, saccharide 1 w/v %, 48 hours, 20 grains) | Germinated grains (Number) (unpolished rice; mineral 2.0 w/v %, saccharide 1 w/v %, 72 hours, 20 grains) | Germinated grains (Number) (unpolished rice; mineral 2.0 w/v %, saccharide 1 w/v %, 96 hours, 20 grains) | Germinated grains (Number) (unpolished rice; mineral 2.0 w/v %, saccharide 1 w/v %, 120 hours, 20 grains)
7: Germinated grains (Number) (unpolished rice; Experiment 7, mineral 1.5 w/v %, saccharide 2 w/v %, 96 hours) | Germinated grains (Number) (unpolished rice; Experiment 7, mineral 1.5 w/v %, saccharide 2 w/v %, 120 hours)
Good: Activity of gold fish ([1]; macroscopic observation)
